From US20140235445A1, “PESTICIDE COMPOSITIONS INCLUDING POLYMERIC ADJUVANTS” (priority 2009, published 2014)

Test system: fire ants
Assay: fire ant kill test: time to death of all fire ants in a jar coated with dried insecticide composition
Format: in vivo
Method: In this example a series of commercially available insecticides were tested at various dilution levels and with and without a preferred copolymer, namely the AVAIL® copolymer previously described (a 40%-60% w/w aqueous composition of a saturated sodium salt of a maleic anhydride/itaconic acid copolymer in water). In each set of test runs, the selected insecticide was tested with a population of fire ants in order to determine the time required to kill the entire population.
In particular, in each test run 20 ml of the respective liquid insecticide composition was added to a mason jar and swirled around the inside bottom thereof. The liquid was then poured off and the remainder was allowed to dry on the inner jar surface, creating substantially a monomeric dried layer. The outside neck surface of the jar was then coated in talc, and the open end of the jar was placed into a fire ant nest. The talc coating prevented the aggressive fire ants from climbing the outer surface of the jar. A population of fire ants was thus established in each jar, and the jar was then topped with an apertured mason jar cap. The time to death of all of the fire ants was then recorded.
In each case, the recommended concentration of insecticide was prepared (recorded as “1×”), followed by dilutions with water to create the diluted compositions. Where copolymer was used, the copolymer was added to the insecticide with gentle mixing, at a level of 30 ml per gallon. If desired, lesser amounts of copolymer could be used, e.g., 20 ml per gallon.
In another series of tests, insecticides were tested with various copolymers having different ratios of maleic anhydride and itaconic acid moieties, and at different pH levels. In particular, respective copolymeric compositions were prepared made up ofpolymaleic acid, a 1:3 weight ratio of maleic anhydride to itaconic acid, a 1:1 weight ratio of maleic anhydride to itaconic acid, a 3:1 weight ratio of maleic anhydride to itaconic acid, and a 7:1 weight ratio of maleic anhydride to itaconic acid. Individual portions of each of these copolymers were then pH-modified using sodium hydroxide to provide, for each copolymer, portions with no pH adjustment, and with adjustment to pHs of 6, 7, and 8. These pH-modified test copolymers were then mixed with a 1/100× dilution of malathion at a level of 30 ml of copolymer per gallon of insecticide. Similarly, the same pH-adjusted copolymers were mixed with 1/20× water dilutions of permethrin, again at a level of 30 ml of copolymer per gallon of insecticide.
The test products were then used in the same fire ant kill experiment of Example 1, giving the data of Tables 2 and 3.

[1] = Table 1, insecticide at 1/20X dilution, copolymer, where used, 30 ml per gallon
[2] = Table 1, insecticide at 1/10X dilution
[3] = Table 1, insecticide at 1X (recommended concentration), time to kill entire fire ant population

Compound | TIME TO DEATH [1] [min] | effect of the copolymer on kill time as compared with the insecticide itself (insecticide with copolymer vs insecticide alone) | TIME TO DEATH [2] [min] | TIME TO DEATH (Table 1, insecticide at 1/100X dilution, copolymer, where used, 30 ml per gallon) [min] | TIME TO DEATH [3] [min] | TIME TO DEATH (Table 2, 1/100X malathion, copolymer 30 ml per gallon, no pH adjustment (pH —)) [min] | TIME TO DEATH (Table 1, insecticide at ⅓X dilution) [min]
Cc1c(COC(=O)[C@H]2[C@@H](/C=C(\Cl)C(F)(F)F)C2(C)C)cccc1-c1ccccc1 (stereo in doubt) [bifenthrin, (2-methyl-3-phenylphenyl) methyl (1S,3S)-3-[(Z)-2-chloro-3,3,3-trifluoroprop-1-enyl]-2,2-dimethylcyclopropane-1-carboxylate] | 15 |  |  |  |  |  | 
CCOP(=S)(OCC)Oc1cc(C)nc(C(C)C)n1 [Diazinon®] |  | no decrease in kill times |  |  |  |  | 
CCOC(=O)CC(SP(=S)(OC)OC)C(=O)OCC (centres unmarked) [malathion, 2-(dimethoxyphosphinothioylthio) butanedioic acid diethyl ester] | 5 |  | 2 | 30 | 1 | 14 | 
CC1(C)C(C=C(Cl)Cl)C1C(=O)OCc1cccc(Oc2ccccc2)c1 (centres unmarked) [permethrin, (3-phenoxyphenyl) methyl 3-(2,2-dichloroethenyl)-2,2-dimethyl-cyclopropane-1-carboxylate] | 20 |  | 5 |  | 5 |  | 5
